Results taken from PubChem BioAssay (NCI).
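Step 1: Grow cells in 96-well plates. Step 2: Expose to compound for 48 hours at 5 concentrations. Step 3: Interpolate endpoints linearly; if unreached, use highest concentration. GI50: concentration for 50% inhibition of growth. At the TGI there is no net growth.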

Key:
Assay in all cases: DTP human tumour cell line panel, 48 h
786-0 renal = tested on: 786-0 renal
EKVX NSCLC = tested on: EKVX NSCLC
NCI-H460 lung = tested on: NCI-H460 lung
RPMI-8226 leukemia = tested on: RPMI-8226 leukemia
SNB-75 CNS = tested on: SNB-75 CNS
RXF 393 renal = tested on: RXF 393 renal
T-47D breast = tested on: T-47D breast
UACC-257 melanoma = tested on: UACC-257 melanoma

SMILES | GI50 (786-0 renal) | TGI (786-0 renal) | GI50 (EKVX NSCLC) | TGI (EKVX NSCLC) | GI50 (NCI-H460 lung) | TGI (NCI-H460 lung) | GI50 (RPMI-8226 leukemia) | TGI (RPMI-8226 leukemia) | GI50 (SNB-75 CNS) | TGI (SNB-75 CNS) | GI50 (RXF 393 renal) | TGI (RXF 393 renal) | GI50 (T-47D breast) | TGI (T-47D breast) | GI50 (UACC-257 melanoma) | TGI (UACC-257 melanoma)
COc1cc(C2C3=C(COC3=O)Nc3c2ccc2c3CCCC2)cc2c1OCO2 (configuration not stated) | 0.0757 µM | 14.4 µM | 0.0908 µM | > 100 µM | 0.0353 µM | 15.7 µM | 0.0479 µM | 75.3 µM | 0.0251 µM | 14.5 µM |  |  |  |  |  | 
NCCOc1ccccc1/C=C1\c2ccccc2-c2ccc([N+](=O)[O-])cc21 | 1.7 µM | 3.23 µM | 1.55 µM | 2.99 µM | 0.488 µM | 1.66 µM | 1.79 µM | 3.63 µM | 1.28 µM | 2.55 µM | 1.6 µM | 3.1 µM | 1.66 µM | 3.44 µM | 1.7 µM | 3.31 µM
COc1cc(-c2cc(/C=C/C(=O)c3ccc(Cl)c(Cl)c3)[nH]n2)cc(OC)c1OC | 10.1 µM | 68 µM |  |  | 4.91 µM | 36.6 µM | 0.538 µM | 6.73 µM |  |  | 2.7 µM | 12.8 µM | 1.66 µM | 15.7 µM | 16.3 µM | 74 µM
C/C=C/[C@H]1O[C@@H]2C(=C[C@H]1O)C(=O)O[C@H]2C | 13.8 µM | 28.7 µM | 13.4 µM | 30.8 µM | > 92 µM | > 100 µM | 2.74 µM | 8.85 µM | 1.23 µM | 26.4 µM | 18.9 µM | 67.7 µM | 7.34 µM | 25.5 µM | 21.7 µM | 43.7 µM
CCN(CC)CCN(Cc1ccc(F)cc1)c1ccc(CO)c(Cl)c1 | 30.2 µM | > 100 µM |  |  | 1.17 µM | 3.97 µM | 23.8 µM | 75.3 µM | 12.2 µM | > 94.8 µM | 31.2 µM | > 69.3 µM | 7.05 µM | > 62.6 µM | 12 µM | 27.7 µM
C[C@]12CC[C@H]3[C@@H](C[C@@H]4SC(Nc5ccccc5)=N[C@@]45CC(O)CC[C@]35C)[C@@H]1CCC2O (some centres not stated) | 1.22 µM | 3.3 µM | 2.75 µM | 9.26 µM | 1.95 µM | 4.04 µM | 0.465 µM | 2.47 µM | 1.49 µM | 3.05 µM | 0.798 µM | 2.28 µM | 2.41 µM | 7.59 µM | 2.54 µM | 6.68 µM
OCCNCCCOc1ccc2ncnc(Nc3ccc(Oc4cccc(C(F)(F)F)c4)c(Cl)c3)c2c1 | 1.62 µM | 3.03 µM | 1.24 µM | 2.76 µM | 1.73 µM | 3.31 µM | 1.51 µM | 4.1 µM | 1.48 µM | 2.86 µM |  |  |  |  |  | 
CCCCNC(=O)Oc1ccc(/C(=C(/C)Cc2ccc(OC)cc2)c2ccc(OCCN3CCCC3)cc2)cc1 | 1.51 µM | 2.91 µM | 1.86 µM | 5.5 µM | 1.81 µM | 3.34 µM | 2.2 µM | 4.85 µM | 1.56 µM | 4.5 µM | 2.07 µM | 3.79 µM | 1.39 µM | 4.37 µM | 1.88 µM | 3.44 µM
COc1c(-c2ccc(O)c(O)c2)oc2c(O)c(O)cc(O)c2c1=O |  | > 100 µM |  | > 100 µM |  | > 100 µM |  | > 100 µM |  |  |  |  |  | > 100 µM |  | > 100 µM
O=C1C(=O)c2ccccc2C(O)=C1CCCc1ccc(C2CCCCCC2)cc1 | 0.465 µM | 17 µM | 0.939 µM | 50.6 µM | 0.361 µM | 13.4 µM | 0.463 µM | 13.9 µM | 2.5 µM | 52.2 µM | 10.2 µM | 41.7 µM | 3.46 µM | > 45.8 µM | 0.662 µM | > 23.3 µM
Cc1[nH]c(-c2nc3ccccc3[nH]2)c(C)c1C(=O)NC(C)C1CCCCC1 (configuration not stated) | 14.8 µM | 32.2 µM | 11.4 µM | 23.7 µM | 14.4 µM | 32 µM | 4.35 µM | 17.7 µM | 3.62 µM | 16.4 µM | 3.17 µM | 11 µM | 12.4 µM | 39.2 µM | 13.2 µM | 33.3 µM
CCC(=O)Nc1ccccc1C#C/C=C\C#Cc1ccccc1C(F)(F)F | 2.37 µM | 23.2 µM | 1.06 µM | 25.2 µM | 1.63 µM | 5.88 µM | 4.25 µM | > 50 µM | 0.884 µM | 5.85 µM | 2.84 µM | > 12.7 µM | 6.04 µM | > 38.9 µM | 7.17 µM | > 45.2 µM
Cc1ccc(C2=C(c3ccccc3)C(c3ccccc3)Oc3ccc(C)cc32)cc1 (configuration not stated) | 2.17 µM | 4.74 µM | 3.2 µM | 12.8 µM | 7.1 µM | 39.9 µM | 6.97 µM | 41.3 µM |  |  | 3.37 µM | 13.3 µM |  |  | 9.2 µM | 23.7 µM
Oc1ccc(CCNCc2cc3c(cc2Br)OCO3)cc1 |  | > 100 µM |  | > 100 µM |  | > 100 µM |  | > 100 µM |  | 84.8 µM |  | > 100 µM |  | > 100 µM |  | > 100 µM
O=[n+]1c2ccccc2n([O-])c2cc(Cl)ccc21 | 3.12 µM | 13.4 µM |  |  | 2.05 µM | 14.7 µM | 2.45 µM | 5.98 µM | 3.18 µM | 15 µM | 3.03 µM | 10 µM | 1.96 µM | 11.7 µM | 5.49 µM | 18.1 µM
c1cncc(C2Nc3cccc4cccc(c34)N2)c1 | > 100 µM | > 100 µM | 36 µM | > 100 µM | > 100 µM | > 100 µM | 33.9 µM | > 100 µM | 17.9 µM | > 100 µM | 16.8 µM | 33 µM | 2.62 µM | 9.29 µM |  | 
Cc1cc(N2CCCC2)nc(NCc2cc(Nc3ccnc4cc(Cl)ccc34)ccc2F)n1 | 1.34 µM | 2.84 µM |  |  | 1.23 µM | 2.86 µM | 0.404 µM | 5.04 µM |  |  | 1.43 µM | 2.87 µM |  |  | 1.31 µM | 2.66 µM
